Source: PubChem BioAssay (NCI)
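Cultured in 96-well plates, cells were exposed to test compound for 48 hours across five concentrations. GI50 is the concentration that inhibits growth by half. TGI: concentration producing complete growth inhibition.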

Tests used:
Experiment in all cases: NCI tumour cell line growth inhibition, 48 h; in the data active = GI50 below about 0.43 µM; inactive = the rest
HOP-62 NSCLC = test system: HOP-62 NSCLC
KM12 colon = test system: KM12 colon
OVCAR-4 ovarian = test system: OVCAR-4 ovarian
MDA-MB-435 = test system: MDA-MB-435
NCI-H23 lung = test system: NCI-H23 lung
HCC-2998 colon = test system: HCC-2998 colon
T-47D breast = test system: T-47D breast
TK-10 renal = test system: TK-10 renal
SW-620 colon = test system: SW-620 colon
SF-295 CNS = test system: SF-295 CNS
SNB-19 CNS = test system: SNB-19 CNS
LOX IMVI melanoma = test system: LOX IMVI melanoma
HL-60(TB) leukemia = test system: HL-60(TB) leukemia
UACC-257 melanoma = test system: UACC-257 melanoma
NCI/ADR-RES ovarian = test system: NCI/ADR-RES ovarian
CCRF-CEM leukemia = test system: CCRF-CEM leukemia
U251 CNS = test system: U251 CNS
UO-31 renal = test system: UO-31 renal
A498 renal = test system: A498 renal
SK-OV-3 ovarian = test system: SK-OV-3 ovarian
NCI-H522 lung = test system: NCI-H522 lung
SK-MEL-28 melanoma = test system: SK-MEL-28 melanoma
MALME-3M melanoma = test system: MALME-3M melanoma
BT-549 breast = test system: BT-549 breast
ACHN renal = test system: ACHN renal
SN12C renal = test system: SN12C renal
MDA-MB-231 breast = test system: MDA-MB-231 breast
SK-MEL-5 melanoma = test system: SK-MEL-5 melanoma
SF-539 CNS = test system: SF-539 CNS
DU-145 prostate = test system: DU-145 prostate
PC-3 prostate = test system: PC-3 prostate
SR leukemia = test system: SR leukemia
OVCAR-3 ovarian = test system: OVCAR-3 ovarian
SK-MEL-2 melanoma = test system: SK-MEL-2 melanoma
A549 NSCLC = test system: A549 NSCLC
EKVX NSCLC = test system: EKVX NSCLC
RPMI-8226 leukemia = test system: RPMI-8226 leukemia
MOLT-4 leukemia = test system: MOLT-4 leukemia
CAKI-1 renal = test system: CAKI-1 renal
RXF 393 renal = test system: RXF 393 renal
M14 melanoma = test system: M14 melanoma
SNB-75 CNS = test system: SNB-75 CNS
OVCAR-8 ovarian = test system: OVCAR-8 ovarian
NCI-H226 lung = test system: NCI-H226 lung
HOP-92 NSCLC = test system: HOP-92 NSCLC
K-562 leukemia = test system: K-562 leukemia
HS 578T breast = test system: HS 578T breast
HCT-15 colon = test system: HCT-15 colon
UACC-62 melanoma = test system: UACC-62 melanoma
COLO 205 colon = test system: COLO 205 colon
HT29 colon = test system: HT29 colon
HCT-116 colon = test system: HCT-116 colon
IGROV1 ovarian = test system: IGROV1 ovarian
SF-268 CNS = test system: SF-268 CNS
NCI-H460 lung = test system: NCI-H460 lung
786-0 renal = test system: 786-0 renal
OVCAR-5 ovarian = test system: OVCAR-5 ovarian
MCF7 breast = test system: MCF7 breast

COc1ccc2c(c1)CC[C@@H]1[C@@H]2CC[C@]2(C)C(=O)C3(CCCCC3)C[C@@H]12
inactive: GI50 (HOP-62 NSCLC) > 100 µM | GI50 (KM12 colon) > 100 µM | GI50 (OVCAR-4 ovarian) > 100 µM | GI50 (MDA-MB-435) > 100 µM | GI50 (NCI-H23 lung) > 100 µM | GI50 (HCC-2998 colon) > 100 µM | GI50 (T-47D breast) > 100 µM | GI50 (TK-10 renal) > 100 µM | GI50 (SW-620 colon) > 100 µM | GI50 (SF-295 CNS) > 100 µM | GI50 (SNB-19 CNS) > 100 µM | GI50 (LOX IMVI melanoma) > 100 µM | GI50 (HL-60(TB) leukemia) > 100 µM | GI50 (UACC-257 melanoma) 44.8 µM | GI50 (NCI/ADR-RES ovarian) > 100 µM | GI50 (CCRF-CEM leukemia) > 100 µM | GI50 (U251 CNS) > 100 µM | GI50 (UO-31 renal) > 100 µM | GI50 (A498 renal) > 100 µM | GI50 (SK-OV-3 ovarian) > 100 µM | GI50 (NCI-H522 lung) > 100 µM | GI50 (SK-MEL-28 melanoma) > 100 µM | GI50 (MALME-3M melanoma) > 100 µM | GI50 (BT-549 breast) > 100 µM | GI50 (ACHN renal) > 100 µM | GI50 (SN12C renal) > 100 µM | GI50 (MDA-MB-231 breast) > 100 µM | GI50 (SK-MEL-5 melanoma) > 100 µM | GI50 (SF-539 CNS) > 100 µM | GI50 (DU-145 prostate) > 100 µM | GI50 (PC-3 prostate) > 100 µM | GI50 (SR leukemia) > 100 µM | GI50 (OVCAR-3 ovarian) > 100 µM | GI50 (SK-MEL-2 melanoma) > 100 µM | GI50 (A549 NSCLC) > 100 µM | GI50 (EKVX NSCLC) > 100 µM | GI50 (RPMI-8226 leukemia) > 100 µM | GI50 (MOLT-4 leukemia) > 100 µM | GI50 (CAKI-1 renal) 31.9 µM | GI50 (RXF 393 renal) > 100 µM | GI50 (M14 melanoma) > 100 µM | GI50 (SNB-75 CNS) > 100 µM | GI50 (OVCAR-8 ovarian) > 100 µM | GI50 (NCI-H226 lung) > 100 µM | GI50 (HOP-92 NSCLC) > 100 µM | GI50 (K-562 leukemia) > 100 µM | GI50 (HS 578T breast) 88.1 µM | GI50 (HCT-15 colon) > 100 µM | GI50 (UACC-62 melanoma) > 100 µM | GI50 (COLO 205 colon) > 100 µM | GI50 (HT29 colon) 79.5 µM | GI50 (HCT-116 colon) > 100 µM | GI50 (IGROV1 ovarian) > 100 µM
> 100 µM: TGI (HOP-62 NSCLC) | TGI (KM12 colon) | TGI (OVCAR-4 ovarian) | TGI (MDA-MB-435) | TGI (NCI-H23 lung) | TGI (HCC-2998 colon) | TGI (T-47D breast) | TGI (TK-10 renal) | TGI (SW-620 colon) | TGI (SF-295 CNS) | TGI (SNB-19 CNS) | TGI (LOX IMVI melanoma) | TGI (HL-60(TB) leukemia) | TGI (UACC-257 melanoma) | TGI (NCI/ADR-RES ovarian) | TGI (CCRF-CEM leukemia) | TGI (U251 CNS) | TGI (UO-31 renal) | TGI (A498 renal) | TGI (SK-OV-3 ovarian) | TGI (NCI-H522 lung) | TGI (SK-MEL-28 melanoma) | TGI (MALME-3M melanoma) | TGI (BT-549 breast) | TGI (ACHN renal) | TGI (SN12C renal) | TGI (MDA-MB-231 breast) | TGI (SK-MEL-5 melanoma) | TGI (SF-539 CNS) | TGI (DU-145 prostate) | TGI (PC-3 prostate) | TGI (SR leukemia) | TGI (OVCAR-3 ovarian) | TGI (SK-MEL-2 melanoma) | TGI (A549 NSCLC) | TGI (EKVX NSCLC) | TGI (RPMI-8226 leukemia) | TGI (MOLT-4 leukemia) | TGI (CAKI-1 renal) | TGI (RXF 393 renal) | TGI (M14 melanoma) | TGI (SNB-75 CNS) | TGI (OVCAR-8 ovarian) | TGI (NCI-H226 lung) | TGI (HOP-92 NSCLC) | TGI (K-562 leukemia) | TGI (HS 578T breast) | TGI (HCT-15 colon) | TGI (UACC-62 melanoma) | TGI (COLO 205 colon) | TGI (HT29 colon) | TGI (HCT-116 colon) | TGI (IGROV1 ovarian)

C=CCC(N[C@H](CO)C(C)C)c1cn(C(=O)OCC)c2ccccc12 (some centres not stated)
51.6 µM: TGI (SN12C renal)
23.7 µM: TGI (SK-MEL-5 melanoma)
49.5 µM: TGI (LOX IMVI melanoma)
40.2 µM: TGI (NCI-H522 lung)
54.8 µM: TGI (UACC-62 melanoma)
43.9 µM: TGI (PC-3 prostate)
inactive: GI50 (HOP-62 NSCLC) 28.6 µM | GI50 (SF-268 CNS) 33.4 µM | GI50 (KM12 colon) 21.7 µM | GI50 (OVCAR-4 ovarian) 49.6 µM | GI50 (MDA-MB-435) 20.3 µM | GI50 (NCI-H23 lung) 19.1 µM | GI50 (HCC-2998 colon) 17 µM | GI50 (T-47D breast) 39.9 µM | GI50 (NCI-H460 lung) 32.4 µM | GI50 (TK-10 renal) 13.7 µM | GI50 (SW-620 colon) 27.9 µM | GI50 (SF-295 CNS) 15.9 µM | GI50 (SNB-19 CNS) 59.9 µM | GI50 (LOX IMVI melanoma) 19.4 µM | GI50 (UACC-257 melanoma) 18.3 µM | GI50 (786-0 renal) 28.4 µM | GI50 (NCI/ADR-RES ovarian) 21.8 µM | GI50 (CCRF-CEM leukemia) 22.4 µM | GI50 (U251 CNS) 27.4 µM | GI50 (UO-31 renal) 45.2 µM | GI50 (SK-OV-3 ovarian) 81.3 µM | GI50 (NCI-H522 lung) 17.9 µM | GI50 (SK-MEL-28 melanoma) 53.6 µM | GI50 (BT-549 breast) 24.7 µM | GI50 (ACHN renal) 32.1 µM | GI50 (SN12C renal) 19.7 µM | GI50 (MDA-MB-231 breast) 13.2 µM | GI50 (SK-MEL-5 melanoma) 10.2 µM | GI50 (SF-539 CNS) 28.2 µM | GI50 (DU-145 prostate) 30.1 µM | GI50 (PC-3 prostate) 15.9 µM | GI50 (OVCAR-3 ovarian) 16.6 µM | GI50 (SK-MEL-2 melanoma) 42.3 µM | GI50 (A549 NSCLC) 24.9 µM | GI50 (OVCAR-5 ovarian) 48.6 µM | GI50 (EKVX NSCLC) 22.9 µM | GI50 (MCF7 breast) 35 µM | GI50 (RPMI-8226 leukemia) 13.3 µM | GI50 (MOLT-4 leukemia) 15.4 µM | GI50 (CAKI-1 renal) 13.8 µM | GI50 (RXF 393 renal) 18.9 µM | GI50 (M14 melanoma) 21.3 µM | GI50 (SNB-75 CNS) 69.3 µM | GI50 (OVCAR-8 ovarian) 21.7 µM | GI50 (HOP-92 NSCLC) 14.1 µM | GI50 (K-562 leukemia) 11.1 µM | GI50 (HS 578T breast) 22.7 µM | GI50 (HCT-15 colon) 32.4 µM | GI50 (UACC-62 melanoma) 22.7 µM | GI50 (COLO 205 colon) 25.4 µM | GI50 (HT29 colon) 36.1 µM | GI50 (HCT-116 colon) 24.2 µM | GI50 (IGROV1 ovarian) 7.81 µM
43.3 µM: TGI (OVCAR-3 ovarian)
54.2 µM: TGI (RXF 393 renal)
67.8 µM: TGI (BT-549 breast)
61 µM: TGI (NCI/ADR-RES ovarian)
70.2 µM: TGI (CCRF-CEM leukemia)
33.6 µM: TGI (HCC-2998 colon)
69.9 µM: TGI (SF-539 CNS)
59.7 µM: TGI (KM12 colon)
31.2 µM: TGI (MDA-MB-231 breast)
> 100 µM: TGI (SF-268 CNS) | TGI (OVCAR-4 ovarian) | TGI (T-47D breast) | TGI (NCI-H460 lung) | TGI (SW-620 colon) | TGI (SNB-19 CNS) | TGI (U251 CNS) | TGI (UO-31 renal) | TGI (SK-OV-3 ovarian) | TGI (SK-MEL-28 melanoma) | TGI (ACHN renal) | TGI (DU-145 prostate) | TGI (SK-MEL-2 melanoma) | TGI (OVCAR-5 ovarian) | TGI (MCF7 breast) | TGI (SNB-75 CNS) | TGI (HS 578T breast) | TGI (HCT-15 colon) | TGI (HT29 colon)
82 µM: TGI (A549 NSCLC)
25.8 µM: TGI (K-562 leukemia)
40.7 µM: TGI (RPMI-8226 leukemia)
38.1 µM: TGI (SF-295 CNS)
44.2 µM: TGI (UACC-257 melanoma)
89.1 µM: TGI (HOP-62 NSCLC)
46 µM: TGI (M14 melanoma)
45.6 µM: TGI (HOP-92 NSCLC)
57.1 µM: TGI (IGROV1 ovarian)
44.1 µM: TGI (TK-10 renal)
68.8 µM: TGI (HCT-116 colon)
65.9 µM: TGI (COLO 205 colon)
72.7 µM: TGI (786-0 renal)
41.1 µM: TGI (CAKI-1 renal)
34.7 µM: TGI (MOLT-4 leukemia)
48.2 µM: TGI (OVCAR-8 ovarian)
49.3 µM: TGI (NCI-H23 lung)
50.5 µM: TGI (MDA-MB-435)
77 µM: TGI (EKVX NSCLC)
